# ChEMBL document CHEMBL5465560, “Selectivity Literature for EUbOPEN Chemogenomic Library” (2024)
# Columns and labels:
# [1] = target: Insulin receptor (Homo sapiens, UniProt P06213); assay: Selectivity interaction (Millipore kinase profiler) EUB0000124b INSR; conditions: at 10 µM
# [2] = target: Nucleosome-remodeling factor subunit BPTF (Homo sapiens, UniProt Q12830); assay: Selectivity interaction (Human bromodomain panel (DSF assay)) EUB0000233b BPTF
# [3] = system: Epidermal growth factor receptor (Homo sapiens), P00533 [UNDEFINED MUTATION]; assay: Selectivity interaction (KinomeScan (DiscoverX)) EUB0000045b EGFR; conditions: at 1 µM
# [4] = target: T1, Tyrosine-protein kinase receptor TYRO3 (Homo sapiens) (UniProt Q06418); assay: Selectivity interaction (KinomeScan (DiscoverX)) EUB0000045b TYRO3
# T1 sequence (whole entry): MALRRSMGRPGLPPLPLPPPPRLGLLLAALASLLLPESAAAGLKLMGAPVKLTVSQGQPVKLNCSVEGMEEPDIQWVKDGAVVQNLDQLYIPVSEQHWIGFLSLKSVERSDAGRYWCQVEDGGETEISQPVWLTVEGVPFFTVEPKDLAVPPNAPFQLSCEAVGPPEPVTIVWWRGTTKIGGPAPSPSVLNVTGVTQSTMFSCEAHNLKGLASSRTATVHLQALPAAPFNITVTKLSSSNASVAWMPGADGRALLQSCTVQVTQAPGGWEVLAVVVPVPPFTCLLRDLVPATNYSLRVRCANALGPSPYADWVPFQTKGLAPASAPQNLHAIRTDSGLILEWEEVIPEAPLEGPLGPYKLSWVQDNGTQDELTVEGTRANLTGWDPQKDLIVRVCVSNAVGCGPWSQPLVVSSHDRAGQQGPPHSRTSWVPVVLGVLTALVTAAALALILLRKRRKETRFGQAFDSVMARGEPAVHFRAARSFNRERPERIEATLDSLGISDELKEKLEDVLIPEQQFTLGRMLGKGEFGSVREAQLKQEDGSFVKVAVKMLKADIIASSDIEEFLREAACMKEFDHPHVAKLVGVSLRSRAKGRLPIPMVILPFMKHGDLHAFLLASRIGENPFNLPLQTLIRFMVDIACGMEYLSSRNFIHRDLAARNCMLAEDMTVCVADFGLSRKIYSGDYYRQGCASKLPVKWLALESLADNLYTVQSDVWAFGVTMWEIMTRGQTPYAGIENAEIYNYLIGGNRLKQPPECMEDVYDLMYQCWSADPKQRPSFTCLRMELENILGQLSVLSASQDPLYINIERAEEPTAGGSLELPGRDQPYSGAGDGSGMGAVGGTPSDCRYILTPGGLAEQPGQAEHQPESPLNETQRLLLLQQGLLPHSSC
# [5] = target: T2, Mitogen-activated protein kinase kinase kinase 19 (Homo sapiens) (UniProt Q56UN5); assay: Selectivity interaction (KinomeScan (DiscoverX)) EUB0001868a MAP3K19; conditions: at 1 µM
# T2 sequence (whole entry): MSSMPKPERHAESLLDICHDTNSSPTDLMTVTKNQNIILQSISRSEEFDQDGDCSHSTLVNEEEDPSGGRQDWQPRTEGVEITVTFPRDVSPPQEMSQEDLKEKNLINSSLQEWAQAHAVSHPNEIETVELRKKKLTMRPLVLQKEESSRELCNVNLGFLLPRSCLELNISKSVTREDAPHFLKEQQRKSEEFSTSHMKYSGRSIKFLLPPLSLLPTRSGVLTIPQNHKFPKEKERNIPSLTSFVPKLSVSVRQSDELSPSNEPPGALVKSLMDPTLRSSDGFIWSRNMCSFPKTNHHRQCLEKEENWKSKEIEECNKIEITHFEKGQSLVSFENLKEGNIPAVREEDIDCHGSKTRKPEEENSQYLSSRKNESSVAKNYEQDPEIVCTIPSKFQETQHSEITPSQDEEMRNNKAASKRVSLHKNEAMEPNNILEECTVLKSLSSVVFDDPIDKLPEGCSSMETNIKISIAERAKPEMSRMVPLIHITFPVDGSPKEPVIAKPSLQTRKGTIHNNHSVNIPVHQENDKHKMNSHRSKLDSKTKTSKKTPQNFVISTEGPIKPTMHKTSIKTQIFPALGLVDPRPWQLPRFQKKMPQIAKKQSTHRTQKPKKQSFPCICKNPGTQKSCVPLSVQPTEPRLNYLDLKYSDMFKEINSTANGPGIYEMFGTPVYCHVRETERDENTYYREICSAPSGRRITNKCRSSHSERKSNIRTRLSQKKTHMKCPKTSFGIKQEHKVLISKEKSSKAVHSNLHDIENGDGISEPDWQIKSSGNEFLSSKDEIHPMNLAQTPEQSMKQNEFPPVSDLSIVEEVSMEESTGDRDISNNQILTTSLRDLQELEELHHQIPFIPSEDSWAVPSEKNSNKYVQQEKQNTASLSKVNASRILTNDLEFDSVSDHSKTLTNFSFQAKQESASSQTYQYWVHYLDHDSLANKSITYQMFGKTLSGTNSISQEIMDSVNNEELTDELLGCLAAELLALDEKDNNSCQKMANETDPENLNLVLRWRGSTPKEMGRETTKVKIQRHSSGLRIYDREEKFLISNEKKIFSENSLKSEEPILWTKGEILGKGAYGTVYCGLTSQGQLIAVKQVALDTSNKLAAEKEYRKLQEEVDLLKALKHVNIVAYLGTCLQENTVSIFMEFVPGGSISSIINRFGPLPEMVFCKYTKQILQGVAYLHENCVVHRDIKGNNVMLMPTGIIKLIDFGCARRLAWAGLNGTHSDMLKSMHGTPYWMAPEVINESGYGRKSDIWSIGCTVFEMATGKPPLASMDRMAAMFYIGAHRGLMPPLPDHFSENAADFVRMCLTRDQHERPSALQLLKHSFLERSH
# Sequence of Epidermal growth factor receptor (Homo sapiens), P00533 [UNDEFINED MUTATION] (P00533 whole entry, looked up, change not shown): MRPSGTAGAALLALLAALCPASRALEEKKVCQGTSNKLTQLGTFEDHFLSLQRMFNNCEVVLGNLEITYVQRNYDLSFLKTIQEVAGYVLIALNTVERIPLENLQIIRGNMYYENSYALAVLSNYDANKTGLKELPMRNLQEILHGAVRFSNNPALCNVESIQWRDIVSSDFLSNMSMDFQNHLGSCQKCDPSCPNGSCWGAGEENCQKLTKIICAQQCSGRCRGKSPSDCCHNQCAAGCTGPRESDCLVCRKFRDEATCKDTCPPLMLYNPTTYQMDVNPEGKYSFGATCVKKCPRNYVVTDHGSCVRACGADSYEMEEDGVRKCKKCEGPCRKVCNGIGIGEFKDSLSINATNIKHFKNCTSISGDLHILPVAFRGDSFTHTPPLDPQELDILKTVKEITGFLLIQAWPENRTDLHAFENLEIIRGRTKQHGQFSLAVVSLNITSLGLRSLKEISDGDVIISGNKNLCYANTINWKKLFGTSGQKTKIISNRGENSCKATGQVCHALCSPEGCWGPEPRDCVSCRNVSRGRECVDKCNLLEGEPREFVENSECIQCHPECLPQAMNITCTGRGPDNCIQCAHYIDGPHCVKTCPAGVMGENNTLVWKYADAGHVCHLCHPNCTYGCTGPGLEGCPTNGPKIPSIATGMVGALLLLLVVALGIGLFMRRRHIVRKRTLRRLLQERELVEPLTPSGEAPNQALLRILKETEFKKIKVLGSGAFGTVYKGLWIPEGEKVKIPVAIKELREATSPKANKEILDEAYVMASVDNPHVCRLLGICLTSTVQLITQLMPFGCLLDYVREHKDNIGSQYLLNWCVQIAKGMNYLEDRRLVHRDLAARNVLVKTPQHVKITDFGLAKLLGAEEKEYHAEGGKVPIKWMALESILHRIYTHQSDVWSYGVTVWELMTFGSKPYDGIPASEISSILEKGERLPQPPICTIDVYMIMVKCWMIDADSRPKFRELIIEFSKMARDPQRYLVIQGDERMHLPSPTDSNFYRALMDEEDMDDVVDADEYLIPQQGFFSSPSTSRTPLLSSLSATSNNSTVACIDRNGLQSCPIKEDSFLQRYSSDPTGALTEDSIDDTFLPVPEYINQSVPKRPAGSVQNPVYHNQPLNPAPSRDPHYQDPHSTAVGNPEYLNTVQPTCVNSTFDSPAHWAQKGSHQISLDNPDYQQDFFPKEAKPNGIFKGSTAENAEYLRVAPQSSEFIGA
# Sequence of Insulin receptor (P06213 28-758 limits assumed): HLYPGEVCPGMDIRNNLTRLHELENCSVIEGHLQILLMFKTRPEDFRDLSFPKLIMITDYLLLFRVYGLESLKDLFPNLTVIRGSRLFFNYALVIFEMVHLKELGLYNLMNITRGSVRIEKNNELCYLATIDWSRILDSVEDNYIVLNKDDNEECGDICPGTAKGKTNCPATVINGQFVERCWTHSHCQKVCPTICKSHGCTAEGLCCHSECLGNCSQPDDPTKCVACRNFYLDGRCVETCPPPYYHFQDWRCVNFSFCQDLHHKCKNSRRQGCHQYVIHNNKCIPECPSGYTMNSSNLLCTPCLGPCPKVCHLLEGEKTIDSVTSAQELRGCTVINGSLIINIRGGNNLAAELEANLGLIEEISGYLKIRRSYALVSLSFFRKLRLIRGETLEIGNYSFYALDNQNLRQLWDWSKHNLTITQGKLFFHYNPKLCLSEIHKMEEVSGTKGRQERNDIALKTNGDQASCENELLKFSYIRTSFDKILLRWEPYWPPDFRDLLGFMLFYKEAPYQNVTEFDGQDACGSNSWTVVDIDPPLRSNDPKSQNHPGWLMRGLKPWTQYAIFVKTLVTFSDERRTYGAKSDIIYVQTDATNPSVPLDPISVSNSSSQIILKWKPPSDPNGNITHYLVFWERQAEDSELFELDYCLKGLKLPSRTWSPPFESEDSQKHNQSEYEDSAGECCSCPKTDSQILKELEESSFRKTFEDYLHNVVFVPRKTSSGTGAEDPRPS
# Sequence of Insulin receptor (P06213 763-1382 limits assumed): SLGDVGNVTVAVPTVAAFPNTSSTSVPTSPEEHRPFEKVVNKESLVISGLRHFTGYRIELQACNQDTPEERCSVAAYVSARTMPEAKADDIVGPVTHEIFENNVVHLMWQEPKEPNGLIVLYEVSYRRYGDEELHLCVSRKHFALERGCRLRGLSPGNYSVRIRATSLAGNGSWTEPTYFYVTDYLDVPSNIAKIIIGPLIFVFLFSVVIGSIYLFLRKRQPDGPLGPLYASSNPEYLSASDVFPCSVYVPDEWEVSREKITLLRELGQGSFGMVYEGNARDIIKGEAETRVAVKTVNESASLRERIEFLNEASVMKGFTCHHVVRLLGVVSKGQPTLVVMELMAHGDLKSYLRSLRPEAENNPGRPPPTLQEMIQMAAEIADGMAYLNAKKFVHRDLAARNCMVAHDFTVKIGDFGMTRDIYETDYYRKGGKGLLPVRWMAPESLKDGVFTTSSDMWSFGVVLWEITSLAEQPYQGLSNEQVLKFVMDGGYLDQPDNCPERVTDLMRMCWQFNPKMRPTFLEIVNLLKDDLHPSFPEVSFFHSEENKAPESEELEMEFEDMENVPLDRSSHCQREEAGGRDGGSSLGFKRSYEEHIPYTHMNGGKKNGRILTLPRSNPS
smiles,measurement,setting,value
CC(=O)Nc1cccc(-n2c(=O)n(C3CC3)c(=O)c3c(Nc4ccc(I)cc4F)n(C)c(=O)c(C)c32)c1,% of control,[1],129%
CN(C)CCCOc1ccc(-c2cc(NCCCn3cccn3)nc(S(C)(=O)=O)n2)cc1,dTM,[2],3.8 K
C=CC(=O)Nc1cc(-n2c(=O)ccc3cnc4ccc(-c5ccc(NS(C)(=O)=O)cc5)cc4c32)ccc1C,% of control,[3],89%
same,% of control,[4]; at 1 µM,100%
same,% of control,[4]; at 10 µM,100%
Cc1cc(-c2ccnc(Nc3cnn(C)c3)n2)ccc1CNC(=O)N1CC(OC(C)C)C1,% of control,[5],9%
